# Reference: patent publication US11066384B2, “Crystalline forms of ARN-509, preparation method and use thereof” (Crystal Pharmaceutical (Suzhou) Co., Ltd., priority 2018, dated 2021)
# Entries after “also recorded” stand apart in the source; their conditions may differ.
# Key:
# [1] = Compressibility: tensile strength of compacts; type: physicochemical; conditions: 80 mg, φ6 mm round tooling, 10 KN; for Diameter / Hardness / Thickness: after 24 h at room temperature; for Tensile strength: T=2H/πDL
# Protocol: 80 mg of Form CS8, Form A and Form B of the prior art were weighed and added into the dies of φ6 mm round tooling, compressed at 10 KN manually, then stored at room temperature for 24 h until complete elastic recovery. Hardness (H) was tested with an Intelligent Tablet Hardness Tester. Diameter (D) and thickness (L) were tested with a caliper. Tensile strength of the powder was calculated with the following formula: T=2H/πDL. Under a certain force, the greater the tensile strength, the better the compressibility.
# [2] = Adhesiveness: material sticking to the punch; type: physicochemical; conditions: 30 mg, φ8 mm round tooling, 10 KN, held 30 s
# Protocol: Approximately 30 mg of Form CS8, Form A and Form B of the prior art were weighed and then added into the dies of φ8 mm round tooling, compressed at 10 KN and held for 30 s. The punch was weighed and amount of material sticking to the punch was calculated. The compression was repeated twice and the cumulative amount, maximum amount and average amount of material sticking to the punch during compression process were recorded.
# [3] = Storage stability of Form CS8 under stress condition (XRPD); type: physicochemical; conditions: 60° C./75% RH
# Protocol: Approximately 30 mg of Form CS8 was stored under 60° C./75% RH in open or close dishes. Crystalline form change of Form CS8 was tested by XRPD.
# [4] = Particle size distribution (laser particle size analyzer); type: physicochemical; conditions: Isopar G containing 0.2% lecithin
# Protocol: The particle size distribution data in the present disclosure were acquired by an […] laser particle size analyzer of Microtrac. Microtrac […] is equipped with an SDC (Sample Delivery Controller). The test is carried out in wet mode, and the dispersion medium is Isopar G. The laser particle size analyzer parameters are as follows: [table] Approximately 20 mg of Form CS8, Form A and Form B of the prior art were added into 10 mL of Isopar G (containing 0.2% lecithin). The mixture was mixed thoroughly and transferred into the SDC. The measurement was started when the sample amount indicator is in appropriate position. The average particle diameter calculated by volume, the diameter at which 10% mass is comprised of smaller particles (D10), the diameter at which 50% mass is comprised of smaller particles (D50) and the diameter at which 90% mass is comprised of smaller particles (D90) were obtained in particle size distribution test.
# [5] = Kinetic solubility of Form CS8, Form A and Form B in pH 1.0-6.8 media (HPLC); type: physicochemical; conditions: for Solubility relative to Form A of the prior art / Solubility relative to Form B of the prior art: 15 minutes
# Protocol: The HPLC method parameters for solubility test in the present disclosure are as follows:
# 1. Column: Waters XBridge C18 150×4.6 mm, 5 μm
# 2. Mobile Phase: A: 0.1% TFA in H2O • B: 0.1% TFA in Acetonitrile
# 4. Injection Volume: 5 μL
# 5. Detection wavelength: 242 nm
# 6. Column Temperature: 40° C.
# Different parts of the human body have different acidity (pH 1.0-8.0). The pH in stomach is 1.0-2.0, and the pH in the small intestine is 4.0-7.0. The stomach and small intestine are the key organs for drug dissolution and absorption, so measuring the dynamic solubility of a drug in a medium with pH 1.0-7.0 plays an important role in predicting the in vivo bioavailability.
# About 20 mg of Form CS8, Form A and Form B of the prior art were suspended into 2.0 mL of 0.1 mol/L HCl aqueous solution (pH=1.0), 2.0 mL of acetic acid buffer solution (PH=4.5) and 2.0 mL of phosphate buffer solution (pH=6.8) to make suspensions. After equilibrated for 15 minutes, 30 minutes, and 1 hour, concentrations (μg/mL) of the saturated solutions were measured by HPLC.
# [6] = Mechanical stability: manual grinding for 5 minutes (XRPD); type: physicochemical; conditions: ground manually for 5 minutes in a mortar
# Protocol: Form CS8, Form A and Form B of the prior art were ground manually for 5 minutes in a mortar, XRPD patterns were collected before and after gridding. The XRPD pattern overlay of Form CS8, Form A and Form B of the prior art are depicted in FIG. 17, FIG. 18 and FIG. 19.
# [7] = Storage stability of Form CS8 under long-term and accelerated conditions (XRPD, HPLC); type: physicochemical; conditions: for Solid form after storage / Purity after storage / Chemical purity during storage: 6 months; for Purity after storage: initial purity 99.96%; for Time for which the form does not change / keeps stable on storage / Chemical purity during storage: drug substance
# Protocol: The HPLC method parameters for purity test in the present disclosure are as follows: Approximately 30 mg of Form CS8 was stored under 25° C./60% RH and 40° C./75% RH in open or close dishes. Crystalline form and chemical impurity were checked by XRPD and HPLC, respectively. XRPD pattern overlay of Form CS8 of the present disclosure before and after being stored under 25° C./60% RH are depicted in FIG. 13. XRPD pattern overlay of Form CS8 of the present disclosure before and after being stored under 40° C./75% RH are depicted in FIG. 14.
# [8] = Mechanical stability: tableting under different pressures (XRPD); type: physicochemical
# Description: A certain amount of Form CS8 was compressed into pellets under different pressures with suitable tableting die. Crystalline form before and after tableting were checked by XRPD. The test results are shown in Table 14, XRPD pattern overlay is depicted in FIG. 16.
# prostate cancer = conditions: clinical trials; cited from earlier work
# [9] = low solubility and high permeability; cited from earlier work
# [10] = 0.1 mol/L HCl aqueous solution pH=1.0, equilibrated 15 min
# [11] = 0.1 mol/L HCl aqueous solution pH=1.0, equilibrated 30 min
# [12] = 0.1 mol/L HCl aqueous solution pH=1.0, equilibrated 1 h
# [13] = acetic acid buffer solution pH=4.5, equilibrated 15 min
# [14] = acetic acid buffer solution pH=4.5, equilibrated 30 min
# [15] = acetic acid buffer solution pH=4.5, equilibrated 1 h
# [16] = pH=4.5 acetic acid buffer solution
# [17] = pH=6.8 phosphate buffer solution
# [18] = phosphate buffer solution pH=6.8, equilibrated 15 min
# [19] = phosphate buffer solution pH=6.8, equilibrated 30 min
# [20] = phosphate buffer solution pH=6.8, equilibrated 1 h
smiles,measurement,setting,value
"CNC(=O)c1ccc(N2C(=S)N(c3cnc(C#N)c(C(F)(F)F)c3)C(=O)C23CCC3)cc1F [Form CS8, 4-[7-(6-cyano-5-trifluoromethylpyridin-3-yl)-8-oxo-6-thioxo-5,7-diazaspiro[3.4]oct-5-yl]-2-fluoro-N-methylbenzamide]",Diameter,[1],6.05 mm
same,Hardness,[1],14.6 N
same,Thickness,[1],2.19 mm
same,Tensile strength,[1],0.70 MPa
same,Average amount of material sticking to the punch,[2],0.08 mg
same,Maximum amount of material sticking to the punch,[2],0.11 mg
same,Time for which the form does not change / keeps stable on storage,[3],at least 2 weeks
same,Solid form after storage,"[3]; container open or close, 2 weeks",Form CS8
same,D10,[4],48.60 μm
same,D50,[4],100.8 μm
same,D90,[4],164.9 μm
same,MV (average particle diameter calculated by volume),[4],104.7 μm
same,Solubility (concentration of saturated solution),[5]; [10],23.6 µg/mL
same,Solubility (concentration of saturated solution),[5]; [11],25.1 µg/mL
same,Solubility (concentration of saturated solution),[5]; [12],18.7 µg/mL
same,Solubility (concentration of saturated solution),[5]; [13],17.7 µg/mL
same,Solubility (concentration of saturated solution),[5]; [14],10.6 µg/mL
same,Solubility (concentration of saturated solution),[5]; [15],10.9 µg/mL
same,Solubility relative to Form A of the prior art,[5]; pH=1.0 HCl aqueous solution,3.2 times
same,Solubility relative to Form B of the prior art,[5]; pH=1.0 HCl aqueous solution,19.7 times
same,Solubility relative to Form A of the prior art,[5]; [16],3.0 times
same,Solubility relative to Form B of the prior art,[5]; [16],16.1 times
same,Solubility relative to Form A of the prior art,[5]; [17],3.7 times
same,Solubility relative to Form B of the prior art,[5]; [17],19.0 times
same,Solubility (concentration of saturated solution),[5]; [18],22.8 µg/mL
same,Solubility (concentration of saturated solution),[5]; [19],18.9 µg/mL
same,Solubility (concentration of saturated solution),[5]; [20],20.6 µg/mL
same,Crystalline form/crystallinity after grinding,[6],doesn't change after grinding
same,Solid form after storage,[7]; 25° C./60% RH (closed),From CS8
same,Purity after storage,[7]; 25° C./60% RH (closed),99.96%
same,Solid form after storage,[7]; 25° C./60% RH (open),From CS8
same,Purity after storage,[7]; 25° C./60% RH (open),99.96%
same,Solid form after storage,[7]; 40° C./75% RH (closed),From CS8
same,Purity after storage,[7]; 40° C./75% RH (closed),99.95%
same,Solid form after storage,[7]; 40° C./75% RH (open),From CS8
same,Purity after storage,[7]; 40° C./75% RH (open),99.95%
same,Time for which the form does not change / keeps stable on storage,[7]; 25° C./60% RH,at least 6 months
same,Chemical purity during storage,[7]; 25° C./60% RH,above 99.9%
same,Time for which the form does not change / keeps stable on storage,[7]; 40° C./75% RH,at least 6 months
same,Chemical purity during storage,[7]; 40° C./75% RH,above 99.9%
same,Crystalline form after tableting,[8]; pressure 3 kN,Form CS8
same,Crystalline form after tableting,[8]; pressure 7 kN,Form CS8
same,Crystalline form after tableting,[8]; pressure 14 kN,Form CS8
"CNC(=O)c1ccc(N2C(=S)N(c3cnc(C#N)c(C(F)(F)F)c3)C(=O)C23CCC3)cc1F [Form A of the prior art, 4-[7-(6-cyano-5-trifluoromethylpyridin-3-yl)-8-oxo-6-thioxo-5,7-diazaspiro[3.4]oct-5-yl]-2-fluoro-N-methylbenzamide]",Diameter,[1],6.08 mm
same,Hardness,[1],12.3 N
same,Thickness,[1],2.10 mm
same,Tensile strength,[1],0.64 MPa
same,Average amount of material sticking to the punch,[2],0.13 mg
same,Maximum amount of material sticking to the punch,[2],0.19 mg
same,D10,[4],4.22 μm
same,D50,[4],14.81 μm
same,D90,[4],130.4 μm
same,MV (average particle diameter calculated by volume),[4],53.51 μm
same,Solubility (concentration of saturated solution),[5]; [10],7.4 µg/mL
same,Solubility (concentration of saturated solution),[5]; [11],6.2 µg/mL
same,Solubility (concentration of saturated solution),[5]; [12],8.0 µg/mL
same,Solubility (concentration of saturated solution),[5]; [13],5.9 µg/mL
same,Solubility (concentration of saturated solution),[5]; [14],5.2 µg/mL
same,Solubility (concentration of saturated solution),[5]; [15],5.5 µg/mL
same,Solubility (concentration of saturated solution),[5]; [18],6.1 µg/mL
same,Solubility (concentration of saturated solution),[5]; [19],8.4 µg/mL
same,Solubility (concentration of saturated solution),[5]; [20],4.8 µg/mL
same,Crystalline form/crystallinity after grinding,[6],transformed into amorphous after grinding; also recorded: Almost change to amorphous
CNC(=O)c1ccc(N2C(=S)N(c3ccc(C#N)c(C(F)(F)F)c3)C(=O)C2(C)C)cc1F [Enzalutamide],Share of patients in whom the drug is effective,prostate cancer,about 70%
"CNC(=O)c1ccc(N2C(=S)N(c3cnc(C#N)c(C(F)(F)F)c3)C(=O)C23CCC3)cc1F [ARN-509, 4-[7-(6-cyano-5-trifluoromethylpyridin-3-yl)-8-oxo-6-thioxo-5,7-diazaspiro[3.4]oct-5-yl]-2-fluoro-N-methylbenzamide]",BCS class,[9],BCS II
"CNC(=O)c1ccc(N2C(=S)N(c3cnc(C#N)c(C(F)(F)F)c3)C(=O)C23CCC3)cc1F [Form B of the prior art, 4-[7-(6-cyano-5-trifluoromethylpyridin-3-yl)-8-oxo-6-thioxo-5,7-diazaspiro[3.4]oct-5-yl]-2-fluoro-N-methylbenzamide]",Diameter,[1],6.09 mm
same,Hardness,[1],10.1 N
same,Thickness,[1],2.13 mm
same,Tensile strength,[1],0.50 MPa
same,Average amount of material sticking to the punch,[2],0.15 mg
same,Maximum amount of material sticking to the punch,[2],0.17 mg
same,D10,[4],12.1 μm
same,D50,[4],241.7 μm
same,D90,[4],1133 μm
same,MV (average particle diameter calculated by volume),[4],420.3 μm
same,Solubility (concentration of saturated solution),[5]; [10],1.2 µg/mL
same,Solubility (concentration of saturated solution),[5]; [11],1.5 µg/mL
same,Solubility (concentration of saturated solution),[5]; [12],1.3 µg/mL
same,Solubility (concentration of saturated solution),[5]; [13],1.1 µg/mL
same,Solubility (concentration of saturated solution),[5]; [14],1.4 µg/mL
same,Solubility (concentration of saturated solution),[5]; [15],1.3 µg/mL
same,Solubility (concentration of saturated solution),[5]; [18],1.2 µg/mL
same,Solubility (concentration of saturated solution),[5]; [19],1.0 µg/mL
same,Solubility (concentration of saturated solution),[5]; [20],0.9 µg/mL
same,Crystalline form/crystallinity after grinding,[6],decreases after grinding; also recorded: Crystallinity decreased
